Data reported in US6037333A, “Microbe-inhibiting compositions” (Trustees of Tufts College, priority 1998, dated 2000).
“Also recorded” adds a separate entry of the source. Where two headings read alike, the source gives them in different places.

Experiments:
[1] = molecular target: mannose binding protein (MBP) of Acanthamoeba (Acanthamoeba castellanii, UniProt Q6J288); experiment: Solid-phase assay of 35S-labeled Acanthamoeba binding to Man-BSA coated wells; parameters: species or system Acanthamoeba strain MEEI 0184 (A. castellani); settings: for Inhibition of amoebic binding to Man-BSA / affinity of amoebic lectin: no concentration stated; for Inhibition of Acanthamoeba binding to Man-BSA: at 100 mM
mannose binding protein (MBP) of Acanthamoeba, sequence (Q6J288 entry or part of it): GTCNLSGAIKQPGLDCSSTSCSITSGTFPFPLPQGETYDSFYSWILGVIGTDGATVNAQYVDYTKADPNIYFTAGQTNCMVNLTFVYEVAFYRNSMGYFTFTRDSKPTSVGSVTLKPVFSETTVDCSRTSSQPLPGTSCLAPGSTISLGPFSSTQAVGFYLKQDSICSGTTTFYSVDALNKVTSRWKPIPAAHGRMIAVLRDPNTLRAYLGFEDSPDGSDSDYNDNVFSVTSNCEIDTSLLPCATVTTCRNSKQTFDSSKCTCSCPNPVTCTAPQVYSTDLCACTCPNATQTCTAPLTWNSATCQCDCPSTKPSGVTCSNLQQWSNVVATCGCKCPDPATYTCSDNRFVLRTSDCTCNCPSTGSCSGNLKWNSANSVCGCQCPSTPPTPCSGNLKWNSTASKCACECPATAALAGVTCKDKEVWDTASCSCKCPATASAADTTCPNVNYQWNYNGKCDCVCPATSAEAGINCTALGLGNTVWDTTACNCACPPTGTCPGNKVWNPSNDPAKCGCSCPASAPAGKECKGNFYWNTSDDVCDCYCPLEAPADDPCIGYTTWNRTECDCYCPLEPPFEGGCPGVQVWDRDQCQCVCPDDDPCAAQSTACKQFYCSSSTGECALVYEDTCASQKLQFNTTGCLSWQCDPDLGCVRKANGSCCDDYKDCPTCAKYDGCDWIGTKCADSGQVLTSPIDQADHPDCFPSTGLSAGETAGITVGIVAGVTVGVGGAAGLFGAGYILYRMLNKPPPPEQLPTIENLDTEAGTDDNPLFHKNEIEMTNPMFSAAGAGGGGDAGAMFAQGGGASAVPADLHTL
Text: The Acanthamoeba strain MEEI 0184 (A. castellani based on morphological characteristics) was derived from an infected human cornea and used throughout this study. ATCC strain 30868 should have similar properties. The parasites were axenically cultured in PYG medium. A solid-phase assay characterized the sugar binding properties of the mannose binding protein (MBP) of Acanthamoeba (Z. Yang et al., Infect. Immun. 65:439-445, 1997). Briefly, wells of microtiter plates were coated with bovine serum albumin-α-D-mannopyranosyl phenylisothiocyanate (Man-BSA, 15-25 moles of α-D-mannopyranoside/mole albumin, 0.03 μg/ml, 50μl/well in 0.1 M sodium carbonate buffer, pH 9.6, 4° C. overnight). Nonspecific binding was blocked with 1% BSA in phosphate buffered saline (PBS, 1 hour, room temperature). After adding a 50-μl aliquot of ^35 S-labeled Acanthamoeba (5×10^6 cells/ml in PBS; 1 to 2 cpm/parasite, >95% trophozoites) to each well, the plates were incubated for 2 hours at room temperature. After rinsing the cells with PBS to remove unbound Acanthamoeba, 0.1 ml of 2% sodium dodecyl sulfate (SDS) was added to each well, and the radioactivity in aliquots of solubilized material was determined in a scintillation counter.

Acanthamoeba [2] = experiment: Acanthamoeba-induced CPE assay, primary cultures of corneal epithelium; assay type: cell-based; settings: primary cultures as target cells
Procedure: In vitro cytopathic assays were performed using cell cultures of corneal epithelium as target cells. Primary cell cultures of rabbit corneal epithelium were prepared according to published protocols (M. M. Jumblatt, Invest. Opthalmol. Visual Sci. 24:1139-43, 1983) using rabbit eyes from Pel-Freez Biologicals (N. Panjwani et al., Invest. Opthalmol. Visual Sci. 31:689-695, 1990) (Rogers, AK). Generally, seventy-five eyes were processed at a time. Primary cultures have limited life span and can only be passaged 2 to 3 times without significant alteration in cell morphology.
(§1) To characterize the role of carbohydrate-mediated host-parasite interactions in the Acanthamoeba-induced cytotoxicity of host cells, in vitro cytopathic assays were performed using both primary and immortalized cultures of corneal epithelium as host cells. Immortalized cells were assayed as confluent cultures in 24-well plates, and primary cells were assayed as confluent cells in 35-mm dishes or 6-well plates.
The parasites (>95% trophozoites) were rinsed three times in a serum-free Eagle's minimum essential medium supplemented with 0.4% bovine serum albumin (SFB) and aliquots of the parasite suspension (0.2×10^5 to 1×10^6 parasites/ml SFB medium, 300 μl/well for 24-well plates and 500 μl/well for 6-well plates or 35-mm dishes) were added to wells of confluent epithelial cultures which had been rinsed and preincubated in SFB medium for 2 hours. The plates were incubated at 37° C. in a CO2 incubator and periodically examined under a phase-contrast microscope for the presence of cell-free plaques in the monolayer for up to 28-30 hours. Control wells contained host cells without the parasites. At the end of the incubation period, the cultures were stained with Giemsa (Diff-Quik, Dade Diagnostic Inc., Aguada, PR). Approximate cell density in each well was estimated by scanning the stained plates in a calibrated, computer-assisted Bio-Image Scanner (Millipore, Ann Arbor, Mich.). Cytopathic effect (CPE) was expressed as percentage of the optical density by the following formula: [formula]
Primary cultures were less susceptible to amoeba-induced CPE, requiring 1×10^6 parasites/ml to completely destroy the monolayer within 24 hours. This parasite concentration was five times higher than that required to produce the same effect when immortalized cultures were used as target host cells.

Acanthamoeba [3] = experiment: Acanthamoeba-induced cytopathic effect (CPE) assay, immortalized corneal epithelial cultures; assay type: cell-based; settings: for inhibition at 310 µM: at 0.31 mM; for Inhibition of amoeba-induced CPE: no concentration stated; for inhibition at 50000 µM: at 50 mM
Procedure: Corneal epithelial cells with extended life span were also produced.
as §1
The plates were incubated at 37° C. in a CO2 incubator and periodically examined under a phase-contrast microscope for the presence of cell-free plaques in the monolayer for up to 28-30 hours. Control wells contained host cells without the parasites. At the end of the incubation period, the cultures were stained with Giemsa (Diff-Quik, Dade Diagnostic Inc., Aguada, PR). Approximate cell density in each well was estimated by scanning the stained plates in a calibrated, computer-assisted Bio-Image Scanner (Millipore, Ann Arbor, Mich.). Cytopathic effect (CPE) was expressed as percentage of the optical density by the following formula: [formula]
The CPE assays were performed in the SFB media containing one or more saccharides to be tested.
After staining with Giemsa, percent cell loss in each well was calculated based on the optical density in each well.

[4] = molecular target: proteinases P1, P2, P3, P4; experiment: Zymography with proteinase inhibitors, components P1-P4; assay type: biochemical, Acanthamoeba; settings: inhibitor 1 mM
Procedure: (§2) To characterize the mechanism by which the mannose-mediated host-parasite interactions influence the amoeba-induced cytolysis and/or cytopathic effect, conditioned media obtained by incubating amoebae with primary cultures of corneal epithelium in the presence and absence of α-Man for 6 to 8 hours were analyzed by zymography. Media conditioned by only Acanthamoeba or only epithelial cells were also analyzed. Zymography was performed using separating gels containing 10% acrylamide and 2 mg/ml gelatin, essentially as described by D. E. Kleiner et al. (Anal Biochem. 218:325-329, 1994). Samples were diluted in the electrophoresis sample buffer (U. K. Laemmli, Nature 227:680-685, 1970) without mercaptoethanol and were applied to the gels. After electrophoresis, proteinases separated on the gels were renatured by incubating the gels in 2.5% Triton X-100 in 50 mM Tris-HCl, pH 7.5 to remove SDS. After incubating the gels for 18 hours in a developing buffer (50 mM Tris-HCl, pH 7.5 containing 10 mM CaCl2), the gels were stained with Coomassie brilliant blue. Areas of digestion were visualized as non-staining regions. In some experiments, samples were pre-treated with phenylmethylsulfonyl fluoride (PMSF, 1 mM), an inhibitor of […] for one hour prior to electrophoresis, or 1,10-phenanthroline (1 mM), an inhibitor of metalloproteinases, was added to the developing buffer.

proteinases E1, E2 = experiment: Zymography with proteinase inhibitors, media conditioned by epithelial cells alone; assay type: biochemical, rabbit; settings: inhibitor 1 mM
Procedure: as §2

[5] = Acanthamoeba, in Oryctolagus cuniculus, read-out: Inhibition of cytopathic effect (% inhib. at indicated conc.)

| SMILES | Inhibition of amoebic binding to Man-BSA / affinity of amoebic lectin [1] | Inhibition of amoeba-induced CPE (Acanthamoeba [3]) | Inhibition of Acanthamoeba binding to Man-BSA [1] | Inhibition of amoeba-induced cytopathic effect (Acanthamoeba [3]; at 100 mM) | other results |
| --- | --- | --- | --- | --- | --- |
| OCC1OC(OC2C(O)C(CO)OC(OCC3OC(O)C(O)C(O)C3O)C2O)C(O)C(O)C1O (stereo not drawn) [Man(α1-3)Man(α1-6)Man] | potent inhibitors | potent inhibitors | – | – | Inhibition of amoeba-induced CPE (Acanthamoeba [2]): inhibited CPE; inhibition at 310 µM (Acanthamoeba [3]; [5]): 100% |
| C[C@@H]1O[C@@H](O)[C@@H](O)[C@H](O)[C@@H]1O [α-L-Fucose] | poor inhibitors; also recorded: weak inhibitor | poor inhibitors; also recorded: weak inhibitor | – | – | Inhibition of amoebic binding to Man-BSA / affinity of amoebic lectin ([1]; listed as α-fucose): weak inhibitors; Inhibition of amoeba-induced CPE (Acanthamoeba [2]): not inhibitory; inhibition at 100000 µM (Acanthamoeba [3]; Acanthamoeba, in Oryctolagus cuniculus, at 100 mM, read-out: Inhibition of cytopathic effect (% inhib. at indicated conc.)): 40% |
| OC[C@@H](O)[C@@H](O)[C@H](O)[C@H](O)CO [D-mannitol] | did not inhibit | did not inhibit | did not inhibit | did not inhibit | – |
| OC[C@H]1OC(O)[C@@H](O)[C@H](O)[C@@H]1O (stereo partly drawn) [D-altrose] | not inhibitory | – | did not inhibit | – | Inhibition of amoeba-induced cytopathic effect (Acanthamoeba [3]): did not inhibit |
| OC[C@H]1OC(O)[C@@H](O)[C@@H](O)[C@@H]1O (stereo partly drawn) [D-mannose] | – | – | – | – | inhibition at 5000 µM (Acanthamoeba [3]; [5]): 50% |
| CC(=O)N[C@H]1C(O)O[C@H](CO)[C@H](O)[C@@H]1O (stereo partly drawn) [N-acetyl-D-galactosamine] | – | – | did not inhibit | did not inhibit | – |
| OC[C@H]1O[C@H](O)[C@@H](O)[C@@H](O)[C@H]1O [α-D-talose] | not inhibitory | – | did not inhibit | did not inhibit | – |
| C[C@@H]1OC(O)[C@H](O)[C@H](O)[C@H]1O (stereo partly drawn) [L-rhamnose] | – | – | did not inhibit | did not inhibit | – |
| OC[C@H]1O[C@H](O[C@H]2[C@H](O)[C@@H](CO)OC(O)[C@H]2O)[C@@H](O)[C@@H](O)[C@@H]1O (stereo partly drawn) [Man(α1-3)Man] | – | – | – | – | Relative inhibitory potency in binding to Man-BSA ([1]; comparator named in the value): three times more potent than the corresponding α-1-6 disaccharide; inhibition at 310 µM (Acanthamoeba [3]; [5]): 91% |
| OC1OC[C@@H](O)[C@H](O)[C@@H]1O (stereo partly drawn) [D-lyxose] | lack of inhibitory activity; also recorded: no affinity | – | did not inhibit | did not inhibit | – |
| OC[C@H]1OC(O)[C@H](O)[C@@H](O)[C@@H]1O (some centres unmarked) [glucose] | weak inhibitor | – | – | – | – |
| CO[C@@H]1O[C@H](CO)[C@H](O)[C@H](O)[C@H]1O [methyl-β-D-galactopyranoside] | did not inhibit | did not inhibit | did not inhibit | did not inhibit | Inhibition of amoeba-induced CPE (Acanthamoeba [2]): did not inhibit CPE |
| CC(=O)N[C@@H]1C(O)O[C@H](CO)[C@@H](O)[C@@H]1O (stereo partly drawn) [N-acetyl-D-mannosamine] | did not inhibit | did not inhibit | did not inhibit | did not inhibit | – |
| O=P(O)(O)OC[C@H]1OC(O)[C@@H](O)[C@@H](O)[C@@H]1O (stereo partly drawn) [D-mannose-6-phosphate] | – | – | did not inhibit; also recorded: No inhibition | did not inhibit | inhibition at 50000 µM (Acanthamoeba [3]; [5]): 30% |
| OC[C@@H]1OC(O)[C@H](O)[C@H](O)[C@H]1O (stereo partly drawn) [L-mannose] | – | – | did not inhibit | – | Inhibition of amoeba-induced cytopathic effect (Acanthamoeba [3]): did not inhibit |
| OC[C@H]1O[C@H](OC[C@H]2OC(O)[C@@H](O)[C@@H](O)[C@@H]2O)[C@@H](O)[C@@H](O)[C@@H]1O (stereo partly drawn) [Man(α1-6)Man] | – | – | – | – | inhibition at 310 µM (Acanthamoeba [3]; [5]): 80% |
| CO[C@H]1O[C@H](CO)[C@H](O)[C@H](O)[C@H]1O [methyl-α-D-galactopyranoside] | did not inhibit | did not inhibit | did not inhibit | did not inhibit | Inhibition of amoeba-induced CPE (Acanthamoeba [2]): did not inhibit CPE |
| CO[C@@H]1O[C@H](CO)[C@@H](O)[C@H](O)[C@H]1O [methyl-β-D-glucopyranoside] | – | – | did not inhibit | did not inhibit | – |
| CO[C@H]1O[C@H](CO)[C@@H](O)[C@H](O)[C@H]1O [Methyl-α-D-glucopyranoside] | poor inhibitors | poor inhibitors | – | – | inhibition at 100000 µM ([1]; read-out: Inhibition of binding, % at indicated conc.): 40%; inhibition at 50000 µM (Acanthamoeba [3]; [5]): 31% |
| c1cnc2c(c1)ccc1cccnc12 [1,10-phenanthroline] | – | – | – | – | Susceptibility of component P1 (230 kD) to inhibitor [4]: resistant; Susceptibility of component P2 (97 kD) to inhibitor [4]: resistant; Susceptibility of component P3 (80 kD) to inhibitor [4]: susceptible; Susceptibility of component P4 (55 kD) to inhibitor [4]: resistant; Susceptibility of component E1 (93 kD) to inhibitor (proteinases E1, E2): susceptible; Susceptibility of component E2 (63 kD) to inhibitor (proteinases E1, E2): susceptible |
| OCC1OC(OC2C(O)C(CO)OC(OCC3OC(OC4C(O)C(CO)OC(OCC5OC(O)C(O)C(O)C5O)C4O)C(O)C(O)C3O)C2O)C(O)C(O)C1O (stereo not drawn) [Man(α1-3)Man(α1-6)Man-(α1-3)Man(α1-6)Man] | potent inhibitors | potent inhibitors | – | – | Inhibition of amoeba-induced CPE (Acanthamoeba [2]): inhibited CPE |
